The source of these data is patent US11692227B2, “Method for screening for skin whitening agent by using SDF1 promoter region” (AJOU UNIVERSITY INDUSTRY-ACADEMIC COOPERATION FOUNDATION, priority 2018, dated 2023).

In the test the test system is SDF1 promoter. Description: Screening of pigment regulators using SDF1 promoter (pGF1 reporter fibroblast cell line, Luciferase assay). The conditions noted are these: fibroblasts infected with SDF1 promoter pGF1 vector virus; 1 ug TPA; 1 ug and 10 ug retinoic acid; 24 hours after treatment. It is filed as cell-based. The source says:
In order to express the SDF1 promoter gene, the SDF1 promoter gene was inserted into pGF1-vector to construct the SDF1 promoter GFP vector. In order to produce the virus into which the constructed vector was inserted, a virus production system of lentivirus was used. PVSV-G (SystemBiosciences, USA) encoding the required structural protein, the pGF1 vector into which the SDF1 promoter gene was inserted, and pGag-pol were simultaneously co-transfected into HEK-293TN cells by a liposome method. After 6 hours, the medium was replaced with a new medium, cultured for 48 hours, and the medium containing the virus was harvested, and the harvested virus was used for fibroblasts infection. As for the infected fibroblasts, only cells infected by Puromycin were selected for the experiment.
In order to confirm the expression of the prepared SDF1 promoter, Luciferase assay, an experiment that can confirm the level of GFP, was conducted to observe the expression level.
Cells were cultured in 12 well plates in an amount of 1×10^3, and after 24 hours, 1 ug of TPA, 10 ng and 100 ng of EGF, and 1 ug and 10 ug of retinoic acid were treated, respectively. 24 hours after treatment with the drug, the activity of GFP was measured through Luciferase assay.

Structures are written as SMILES.

With `CCCCCCCCCCCCCC(=O)O[C@@H]1[C@@H](C)[C@@]2(O)[C@@H](C=C(CO)C[C@]3(O)C(=O)C(C)=C[C@@H]23)[C@@H]2C(C)(C)[C@]12OC(C)=O` [TPA], the “SDF1 promoter activity (activity of GFP measured through Luciferase assay)” value is reported as “decreased”.
